Experimental data reported in US20240026262A1, “METHODS AND DEVICES FOR EX-UTERO MOUSE EMBRYONIC DEVELOPMENT” (Yeda Research and Development Co. Ltd., priority 2021, published 2024).
“Also recorded” adds a separate entry of the source.

What was measured:
mouse embryos = assay: Ex utero culture of mouse embryos from E6.5 in supplemented EUCM, proper embryo development per stage
Experimental: E5.5 and E6.5 embryos ex utero culture—Cultures starting with pre-gastrulation (E5.5) and early gastrulation (E6.5) embryos were effected in static culture conditions until the early somite stage. Embryos were dissected out of the uterus and individual embryos were transferred into each well of a 8-wells glass bottom/ibiTreat μ-plates (iBidi; 80827/80826) filled with 250 μl of EUCM. To optimize culturing conditions, different media, oxygen concentrations (5% or 21%), extracellular matrices (Matrigel), supplements (N2/B27), and gas pressures (hyperbaric 2.5 or 5 psi) were tested. Media was pre-heated for an hour in an incubator with 5% CO2 at 37° C. Pre-primitive streak stage embryos (distal and anterior visceral endoderm stage) were chosen for culture in the case of E5.5, and early-primitive streak stage embryos were selected for cultures beginning at E6.5. Only embryos with no evident damage and without Reichert's membrane were cultured. Half a volume of media was replaced every 24 hours. Embryos were transferred into the rotating culture at the 4-7 somite stage (three days for cultures started at E5.5 and two days for cultures started at E6.5) or at the late gastrulation stage using the same conditions described previously for E8.5, with the difference that embryos were maintained in a constant atmosphere of 21% oxygen and 5% CO2. Transfer of the embryos at earlier or later stages results in failure of further development. Dynamic oxygen conditions yielded slightly less efficiency for expanding E6.5-E11 than using constant 21% oxygen (FIGS. 10A-B). This difference could result from oxygen diffusion in static conditions being be less efficient than in roller conditions, and that might be why higher oxygen is needed to be delivered in protocols that include static conditions. To allow further culture of the embryos until the stage (E13.5), oxygen was increased to 95% from E10.5 onwards and at E11.5 the embryos were dissected out of the yolk sac and amnion carefully avoiding rupture of any major yolk sac blood vessels, but keeping the yolk sac and umbilical cord attached to the embryo. Morphological evaluation of mouse embryo development—Assessment of appropriate embryo development was performed based on previously established morphological features [Van Maele-Fabry, G., et al. Toxicol. Vitr. 4, 149-156 (1990); Van Maele-Fabry, G., et al. Int. J. Dev. Biol. 36, 161-167 (1992)]. Only embryos presenting all of the following features were considered as properly developed. Proper development at the morphological level from E5.5/E6.5 to E8.5 was assessed as follows: At E6.5, the embryos are constituted by three cell lineages: the cup-shaped pluripotent epiblast (Epi) and two extra-embryonic lineages, the extraembryonic ectoderm (ExE) and the visceral endoderm (VE). The cavities in the embryonic and extraembryonic compartments are unified to form the pro-amniotic cavity, radial symmetry is broken in the epiblast to initiate specification of the primitive streak. After 1 or 2 days of culture ex utero (depending on the time of culture initiation, E5.5 or E6.5), the embryos reach the neural plate stage equivalent to E7.5, with no allantoic bud or early bud. The amniotic folds fuse to form the amnion, and the chorion develops from the ExE and the extraembryonic mesoderm. These events generate three cavities in the embryo: amniotic, exocoelomic and ectoplacental cavities. A small allantois bud is present in some of the embryos, at the base of the primitive streak, and the anterior ectoderm begins to form the future neural groove. On the following day, cultured embryos present between 4 to 8 pairs of somites with the embryo curved dorsally, the yolk sac and yolk sac blood circulation has been established, the allantois started to fuse with the chorion, head folds are well-formed as well as the invaginating foregut and beating heart. […]

[1] = test system: neural tube closure in mouse embryos; assay: Teratogenic experiments in mouse embryos cultured ex utero since E7.5; settings: 1 mM in culture media from E8.5 to E9.5, n=6
Experimental: E7.5 embryo dissection and ex utero culture—Mouse embryos were obtained from non-hormone primed pregnant mice sacrificed by cervical dislocation at E7.5. Subsequently, embryos were dissected out from the uterus in dissection medium pre-equilibrated at 37° C. for 1 hour, consisting of DMEM (GIBCO 11880; includes already 1 mg/mL D-glucose and pyruvate, without phenol red and without L-glutamine) supplemented with 10% Fetal Bovine Serum (Biological Industries; 040131A), sterilized by using a 0.22 μm filter (JetBiofil; FCA-206-250). The embryos were carefully dissected from the decidua and parietal yolk sac leaving the intact ectoplacental cone attached to the egg cylinder. Briefly, the decidua was isolated from the uterine tissue and the tip of the pear-shaped decidua was cut. The decidua was then opened into halves by introducing the forceps adjacent to the embryo in parallel to its long axis and subsequently opening the forceps. Afterwards the embryo was grasped from the decidua and the parietal yolk sac was peeled off the embryo using two forceps. Embryo dissection was performed on a microscope equipped with a Tokai Hit thermo plate at 37° C., within a maximum of 30 minutes to avoid affecting the embryo developmental potential. […] Developmental stage of the embryos was determined according to Downs & Davies^5. […]

Compound | effect on forebrain growth and forebrain defects (mouse embryos; 1 mM sodium pyruvate added to EUCM) | proper embryo development at E7.5 (mouse embryos; EUCM with additional 4 mg/ml glucose and 1 mM sodium pyruvate since E6.5, stage E7.5) | proper embryo development at E8.5 (embryos/total) (mouse embryos; EUCM with additional 4 mg/ml glucose and 1 mM sodium pyruvate since E6.5, stage E8.5) | proper embryo development at E9.5 (mouse embryos; EUCM with additional 4 mg/ml glucose and 1 mM sodium pyruvate since E6.5, stage E9.5) | proper embryo development at E10.5 (mouse embryos; EUCM with additional 4 mg/ml glucose and 1 mM sodium pyruvate since E6.5, stage E10.5) | proper embryo development at E11.5 (mouse embryos; EUCM with additional 4 mg/ml glucose and 1 mM sodium pyruvate since E6.5, stage E11.5) | proper embryo development at E12.5 (mouse embryos; EUCM with additional 4 mg/ml glucose and 1 mM sodium pyruvate since E6.5, stage E12.5) | effect on culture efficiency (mouse embryos; additional 4 mg/ml glucose and 1 mM sodium pyruvate in EUCM since E6.5) | teratogenic effect on neural tube closure [1]
CC(=O)C(=O)[O-].[Na+] [sodium pyruvate] | promotes forebrain growth and eliminates forebrain defects | 8/8 - 100% | 7/7 (1 attached) | 6/7 - 85.7% | 6/7 - 85.7% | 4/7 - 57% | 4/7 - 57% | helps to improve culture efficiency | 
CCCC(CCC)C(=O)O [valproic acid] |  |  |  |  |  |  |  |  | neural tube closure defects; also recorded: teratogenic effects of valproic acid on neural tube closure could be recapitulated
